pEC50, pKd: −log10 of the molar value. Like-named read-outs stand apart in the source and are kept apart here.
Key:
melanoma A375 cells [1] = test: A375 cell proliferation (crystal violet plate assay); format: cell-based, human
osteosarcoma U2OS cells = test: Induction of cytoplasmic vacuoles (enlarged lysosomes) in U2OS cells, light microscopy; format: cell-based, human; conditions: for Concentration to induce LC3-II accumulation, inhibit proliferation or viability relative to concentration to observe vacuolization: same U2OS cells
From the text: Vehicle is the concentration of DMSO that was introduced by addition of compounds.
These effects are dependent on the compound selected, its concentration and the length of time cells are exposed to the compound.
(§1) Cells were obtained from the American Type Culture Collection. BORCS5-KO HeLa cells have been described previously. Osteosarcoma U2OS were routinely seeded in 6-well plates (0.5×10^5 cells/well) and cultured in Dulbecco's Modified Eagle's medium supplemented with L-Glutamine, 4.5 g/L Glucose, Sodium Pyruvate, Phenol Red, and either heat-inactivated or normal 10% fetal calf serum at 37° C. in 5% CO2. Approximately 15-19 hours later, the indicated compound was added in 1:1000 dilutions. Results were the same using either heat-inactivated or normal fetal calf serum. Melanoma A375, embryonic kidney 293T and human foreskin fibroblast Hs27 cells were cultured in the same medium, except that cells were seeded into 12-well plates at 10^3 cells/well.
Phase contrast photographs were taken on an Olympus CKX41 microscope. Confocal photographs were taken on a Leica TCS-SP5II. For immunofluorescence microscopy, the cells were fixed in 4% paraformaldehyde (Electron Microscopy Sciences, 15714) in PBS for 12 min, permeabilized with 0.2% Triton X-100 in PBS for 10 min, and blocked in 0.2% BSA (Sigma-Aldrich, A7030) in PBS for 30 min at 37° C. For endogenous LC3 staining, cells were permeabilized in methanol for 20 min at −20° C. after the paraformaldehyde fixation. The cells were sequentially incubated with primary antibodies (LAMP1: Developmental Studies Hybridoma Bank; LC3 and LAMTOR4: Cell Signaling Technology; FLAG epitope: Sigma-Aldrich) and secondary antibodies conjugated to Alexa Fluor dyes (Life Technologies) diluted with 0.2% BSA in PBS for 30 min at 37° C. Coverslips were mounted on glass slides using Fluoromount-G (Electron Microscopy Sciences, 17984-24). Cells were imaged using a Zeiss LSM880 with AiryScan confocal microscope (Carl Zeiss AG, Oberkochen, Germany) or a Leica TCS-SP5II. The final composite images were created and properly analyzed for lysosomal size examination using ImageJ (NIH).

[2] = test system: LC3-II and p62 in U2OS cells; test: Accumulation of autophagosome markers LC3-II and p62, Western immuno-blotting; format: cell-based, human; conditions: U2OS cells
Protocol: Cells were cultured for 4 hrs before total cell extracts were subjected to Western immuno-blotting for LC3, p62 and β-actin. Blot was developed with film. […] (C) U2OS cells were cultured for the times indicated in the presence of 1.2 μM compound 1 to produce 80% of the maximum observed in FIG. 10A. Total cell extracts were assayed at the times indicated. […] All blots were stained with Ponceau S […].
Total cell lysates were prepared (in 4× dye). Proteins were fractionated at 200V in a NuPAGE 4-12% bis-tris polyacrylamide gel (NP0323, Novex) using NuPAGE MES running buffer (NP0002, Novex) and then stained with PageBlue (24260, Thermo Scientific) in order to quantify the relative amount of histones in each sample. […] Proteins were wet-transferred onto nitrocellulose membranes (162-0112, Bio-Rad) using NuPAGE transfer buffer (NP-0006-1, Novex) for 1 hour at 30V. Membranes were then stained with dilute Ponceau S solution, blocked in 5% milk for 30 minutes at room temperature, and incubated overnight at 4° C. in primary antibody. Membranes were washed with phosphate buffered saline with tween 20 (PBST) three times for 10 min. each, incubated with secondary antibodies in 5% milk for 1 hour, washed three times with PBST again, covered in ECL (SuperSignal West Pico chemiluminescent substrate, 34080, Thermo Scientific) and exposed to film (HyBlot ES, E3218, Denville Scientific).

[3] = test system: human foreskin fibroblasts; test: Proliferation/viability of human foreskin fibroblasts; format: cell-based; conditions: Fibroblast
Protocol: Concentration of each compound in the plate assay is indicated below the compound 1 plate.
as §1, with “Results were the same using either heat-inactivated or normal fetal calf serum.” left out

embryonic kidney cells = test: Viability of embryonic kidney cells; format: cell-based; conditions: Homo sapiens
Protocol: (§2) FIG. 18 summarizes results from 13 human cell lines. All cells were seeded at the same cell density in a rich culture medium and assayed under identical conditions. Compound 1 efficacy is the ratio of cell viability with compound 1 to cell viability with chloroquine derivatives.
as §1, with “Results were the same using either heat-inactivated or normal fetal calf serum.” left out

[4] = test system: breast adenocarcinoma cells; test: Viability of breast adenocarcinoma cells; format: cell-based; conditions: Homo sapiens
Protocol: as §2

melanoma A375 cells [5] = test: Cytoplasmic vacuolization of A375 cells; format: cell-based, human
PIKFYVE = target: T1, PIKFYVE (Homo sapiens, UniProt Q9Y2I7); test: DiscoverX KINOMEscan dissociation constant; format: binding
T1 construct: purchased DiscoverX (KINOMEscan service, San Diego, Calif.)
T1 sequence (Q9Y2I7 whole entry): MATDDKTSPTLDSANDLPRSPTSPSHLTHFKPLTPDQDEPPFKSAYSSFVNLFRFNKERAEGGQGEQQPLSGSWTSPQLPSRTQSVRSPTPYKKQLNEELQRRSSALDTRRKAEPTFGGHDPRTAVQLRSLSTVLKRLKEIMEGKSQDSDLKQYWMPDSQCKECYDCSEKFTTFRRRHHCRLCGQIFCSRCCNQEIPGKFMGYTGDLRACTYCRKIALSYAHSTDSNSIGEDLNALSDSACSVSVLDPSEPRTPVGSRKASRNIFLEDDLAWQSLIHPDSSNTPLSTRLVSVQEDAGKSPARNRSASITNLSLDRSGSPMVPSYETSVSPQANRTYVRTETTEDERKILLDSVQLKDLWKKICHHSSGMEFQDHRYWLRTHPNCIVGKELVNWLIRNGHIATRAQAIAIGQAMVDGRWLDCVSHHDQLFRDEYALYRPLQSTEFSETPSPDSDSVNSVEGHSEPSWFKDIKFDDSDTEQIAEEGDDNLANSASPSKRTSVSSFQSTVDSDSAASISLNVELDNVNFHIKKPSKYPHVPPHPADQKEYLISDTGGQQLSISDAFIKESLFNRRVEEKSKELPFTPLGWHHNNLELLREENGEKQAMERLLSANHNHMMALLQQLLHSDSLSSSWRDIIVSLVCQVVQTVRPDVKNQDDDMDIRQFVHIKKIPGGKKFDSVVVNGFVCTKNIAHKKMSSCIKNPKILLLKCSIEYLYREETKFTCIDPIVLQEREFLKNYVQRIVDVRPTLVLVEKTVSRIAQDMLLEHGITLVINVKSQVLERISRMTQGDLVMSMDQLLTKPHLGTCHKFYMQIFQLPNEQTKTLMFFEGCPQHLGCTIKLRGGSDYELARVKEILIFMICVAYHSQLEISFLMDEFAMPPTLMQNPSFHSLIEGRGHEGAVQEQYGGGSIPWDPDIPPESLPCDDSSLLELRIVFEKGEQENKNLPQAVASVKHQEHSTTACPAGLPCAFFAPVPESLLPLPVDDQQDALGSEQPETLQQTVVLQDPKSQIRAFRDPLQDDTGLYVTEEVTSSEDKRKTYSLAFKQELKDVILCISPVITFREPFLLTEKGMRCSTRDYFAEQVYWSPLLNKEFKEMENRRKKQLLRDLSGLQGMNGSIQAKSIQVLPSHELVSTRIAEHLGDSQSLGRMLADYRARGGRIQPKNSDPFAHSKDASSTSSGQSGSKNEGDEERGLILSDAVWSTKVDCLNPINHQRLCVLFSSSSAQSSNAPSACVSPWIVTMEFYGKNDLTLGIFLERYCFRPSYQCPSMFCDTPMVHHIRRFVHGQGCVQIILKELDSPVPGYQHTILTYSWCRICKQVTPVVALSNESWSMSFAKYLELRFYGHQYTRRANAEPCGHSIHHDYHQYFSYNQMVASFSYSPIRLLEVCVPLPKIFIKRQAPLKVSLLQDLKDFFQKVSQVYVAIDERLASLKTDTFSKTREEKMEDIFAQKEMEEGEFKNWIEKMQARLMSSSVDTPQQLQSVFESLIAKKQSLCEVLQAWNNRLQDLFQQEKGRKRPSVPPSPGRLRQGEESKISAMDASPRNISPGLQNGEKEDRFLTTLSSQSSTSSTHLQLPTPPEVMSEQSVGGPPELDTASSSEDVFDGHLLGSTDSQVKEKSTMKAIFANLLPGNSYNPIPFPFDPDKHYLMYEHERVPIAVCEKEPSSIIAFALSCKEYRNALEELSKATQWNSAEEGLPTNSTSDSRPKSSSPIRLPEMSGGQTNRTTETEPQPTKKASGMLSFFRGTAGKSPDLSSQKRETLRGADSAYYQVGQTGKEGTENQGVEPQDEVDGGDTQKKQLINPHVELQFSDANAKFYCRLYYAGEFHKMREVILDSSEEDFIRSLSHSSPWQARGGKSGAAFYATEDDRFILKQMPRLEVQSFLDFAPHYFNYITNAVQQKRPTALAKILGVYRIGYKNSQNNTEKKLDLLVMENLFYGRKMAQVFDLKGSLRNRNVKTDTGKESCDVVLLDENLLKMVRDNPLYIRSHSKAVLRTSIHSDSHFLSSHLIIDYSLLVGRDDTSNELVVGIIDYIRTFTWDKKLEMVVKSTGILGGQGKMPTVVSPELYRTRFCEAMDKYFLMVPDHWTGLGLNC
Protocol: Each kinase was tagged with a unique DNA sequence that allowed the amount of protein bound to the solid support to be quantified by PCR. The top three targets for compound 1 were PIKFYVE, PIP4K2C and MTOR. […] Dissociation constants (Kd) were determined from the amount of kinase captured on the solid support as a function of the test compound concentration (nM) on a log10 scale. Mean Kd values (±range) are given for each compound. The ratio of PIP4K2C to PIKFYVE indicates the relative specificity for these two kinases.
To address this hypothesis, a panel of 468 human kinases were screened for their ability to bind compound 1. […] The top two candidates were PIKFYVE (phosphoinositide kinase FYVE-type zinc finger containing) and PIP4K2C (phosphatidylinositol-5-phosphate 4-kinase). PIKFYVE is a kinase that is essential for mouse development (49) and that prevents endosome enlargement and cytoplasmic vacuolization (50, 51). PIP4K2C is a kinase that is not essential for mouse growth and viability, but it is essential for the immune system (52), mTORC1 signaling (53), and regulation of autophagy (54). The third candidate was MTOR, a kinase that regulates autophagy (55). Therefore, the binding constants (Kd) for all five members of the compound 1-family were determined for each of these three proteins from two independent titration curves, as shown for compound 1.

Cc1cccc(/C=N/Nc2cc(N3CCOCC3)nc(OCCc3ccccn3)n2)c1 [Apilimod]
Inhibition of proliferation of melanoma A375 cells (melanoma A375 cells [1]): effective

CO/C1=C\C(C)=C\[C@@H](C)[C@@H](O)[C@@H](C)C/C(C)=C/C=C/[C@H](OC)[C@@H]([C@@H](C)[C@@H](O)[C@H](C)[C@@]2(O)C[C@@H](O)[C@H](C)[C@@H](C(C)C)O2)OC1=O [BafA1, Bafilomycin-A1, reference compound]
Induction of vacuoles / enlarged lysosomes (osteosarcoma U2OS cells; U2OS cells): did not induce formation of enlarged lysosomes | Effect on vacuole accumulation induced by the compounds of the invention (osteosarcoma U2OS cells; U2OS cells, BafA1 together with compound 1): prevented induction of vacuole accumulation | Accumulation of LC3-II [2]: induced the accumulation of LC3-II

CCN(CC)CCCC(C)Nc1ccnc2cc(Cl)ccc12 (stereo not shown) [CQ, chloroquine]
Inhibition of proliferation of melanoma A375 cells (melanoma A375 cells [1]): inhibited A375 cell proliferation | pEC50 ([3]; Homo sapiens): < 5.00 | pEC50 (embryonic kidney cells): < 5.00 | pEC50 [4]: < 5.00 | Cytoplasmic vacuolization of A375 cells (melanoma A375 cells [5]): not observed

CCN(CCO)CCCC(C)Nc1ccnc2cc(Cl)ccc12 (stereo not shown) [HCQ, hydroxychloroquine]
Inhibition of proliferation of melanoma A375 cells (melanoma A375 cells [1]): inhibited A375 cell proliferation | pEC50 ([3]; human foreskin fibroblasts, read-out: EC50): < 5.00 | pEC50 (embryonic kidney cells; embryonic kidney cells, read-out: EC50): < 5.00 | pEC50 ([4]; breast adenocarcinoma cells, read-out: EC50): < 5.00 | Cytoplasmic vacuolization of A375 cells (melanoma A375 cells [5]): not observed

Ic1cccc(/C=N/Nc2nc(N3CCOCC3)nc(N(c3ccccc3)c3ccccc3)n2)c1 [Vacuolin]
Inhibition of proliferation of melanoma A375 cells (melanoma A375 cells [1]): effective

Nc1ccc(C(=O)Nc2cccc(-c3nc(N4CCOCC4)c4oc5ncccc5c4n3)c2)cn1 [YM201636]
Inhibition of proliferation of melanoma A375 cells (melanoma A375 cells [1]): effective

Fc1ccc(Nc2nc(N3CCOCC3)nc(N3CCOCC3)n2)cc1Cl [compound 2]
Concentration to induce LC3-II accumulation, inhibit proliferation or viability relative to concentration to observe vacuolization (osteosarcoma U2OS cells): two to three-fold

CCc1ccc(Nc2nc(N3CCOCC3)nc(N3CCOCC3)n2)cc1 [compound 3]
Concentration to induce LC3-II accumulation, inhibit proliferation or viability relative to concentration to observe vacuolization (osteosarcoma U2OS cells): two to three-fold | pKd (PIKFYVE; mean of two independent titration curves): 7.80

Cc1cccc(/C=N/Nc2cc(N3CCOCC3)nc(N3CCOCC3)n2)c1 [compound 4]
Concentration to induce LC3-II accumulation, inhibit proliferation or viability relative to concentration to observe vacuolization (osteosarcoma U2OS cells): about 10 fold | Standing within the family for PIKFYVE binding (PIKFYVE): the most specific

C(=N\Nc1cc(N2CCOCC2)nc(N2CCOCC2)n1)/c1ccccc1 [compound 5]
Concentration to induce LC3-II accumulation, inhibit proliferation or viability relative to concentration to observe vacuolization (osteosarcoma U2OS cells): about 15 fold

From patent US11471460B2, “Autophagy modulators for use in treating cancer” (The United States of America,as represented by the …, priority 2017, dated 2022)
